The NIST ThermoML archive (doi:10.1021/acs.jced.6b00526)
± gives the expanded uncertainty stated by the source.

Assay: refractive index (Na D-line) (dimensionless); xn = mol fraction of the nth substance listed
Conditions: 100 kPa, Liquid, Standard Abbe refractometry

OCCO [1,2-ethanediol] + O
refractive index
Conditions | x2 = 0 | x2 = 0.1593 | x2 = 0.2669 | x2 = 0.3496 | x2 = 0.4449 | x2 = 0.5563 | x2 = 0.6518 | x2 = 0.7482 | x2 = 0.8444
288.15 K | 1.432 ± 0.029 | 1.4278 ± 0.029 | 1.4239 ± 0.029 | 1.4202 ± 0.028 | 1.4152 ± 0.028 | 1.408 ± 0.028 | 1.3996 ± 0.028 | 1.3881 ± 0.028 | 1.3724 ± 0.027
293.15 K | 1.4306 ± 0.029 | 1.4263 ± 0.029 | 1.4225 ± 0.029 | 1.4188 ± 0.028 | 1.4138 ± 0.028 | 1.4067 ± 0.028 | 1.3984 ± 0.028 | 1.387 ± 0.028 | 1.3714 ± 0.027
298.15 K | 1.4294 ± 0.029 | 1.4251 ± 0.029 | 1.4212 ± 0.028 | 1.4176 ± 0.028 | 1.4126 ± 0.028 | 1.4055 ± 0.028 | 1.3973 ± 0.028 | 1.386 ± 0.028 | 1.3705 ± 0.027
303.15 K | 1.4282 ± 0.029 | 1.4239 ± 0.029 | 1.42 ± 0.028 | 1.4163 ± 0.028 | 1.4114 ± 0.028 | 1.4043 ± 0.028 | 1.3961 ± 0.028 | 1.3849 ± 0.028 | 1.3696 ± 0.027
308.15 K | 1.4269 ± 0.029 | 1.4225 ± 0.029 | 1.4187 ± 0.028 | 1.415 ± 0.028 | 1.4102 ± 0.028 | 1.4031 ± 0.028 | 1.3949 ± 0.028 | 1.3838 ± 0.028 | 1.3687 ± 0.027
313.15 K | 1.4257 ± 0.029 | 1.4213 ± 0.028 | 1.4174 ± 0.028 | 1.4138 ± 0.028 | 1.409 ± 0.028 | 1.4019 ± 0.028 | 1.3938 ± 0.028 | 1.3827 ± 0.028 | 1.3677 ± 0.027
318.15 K | 1.4244 ± 0.029 | 1.42 ± 0.028 | 1.4161 ± 0.028 | 1.4125 ± 0.028 | 1.4077 ± 0.028 | 1.4006 ± 0.028 | 1.3926 ± 0.028 | 1.3816 ± 0.028 | 1.3668 ± 0.027

OCCCCO [1,4-butanediol] + O
refractive index
Conditions | x2 = 0 | x2 = 0.152 | x2 = 0.2513 | x2 = 0.3534 | x2 = 0.4482 | x2 = 0.5515 | x2 = 0.6527 | x2 = 0.7501 | x2 = 0.8492 | x2 = 0.9488
288.15 K | 1.447 ± 0.029 | 1.4441 ± 0.029 | 1.4413 ± 0.029 | 1.4376 ± 0.029 | 1.4332 ± 0.029 | 1.4277 ± 0.029 | 1.4203 ± 0.028 | 1.4097 ± 0.028 | 1.3913 ± 0.028 | 1.3596 ± 0.027
293.15 K | 1.4455 ± 0.029 | 1.4425 ± 0.029 | 1.4397 ± 0.029 | 1.436 ± 0.029 | 1.4317 ± 0.029 | 1.4262 ± 0.029 | 1.4188 ± 0.028 | 1.4082 ± 0.028 | 1.39 ± 0.028 | 1.3586 ± 0.027
298.15 K | 1.4441 ± 0.029 | 1.4411 ± 0.029 | 1.4383 ± 0.029 | 1.4346 ± 0.029 | 1.4304 ± 0.029 | 1.4247 ± 0.029 | 1.4174 ± 0.028 | 1.4069 ± 0.028 | 1.3888 ± 0.028 | 1.3577 ± 0.027
303.15 K | 1.4426 ± 0.029 | 1.4395 ± 0.029 | 1.4368 ± 0.029 | 1.4331 ± 0.029 | 1.4289 ± 0.029 | 1.4232 ± 0.029 | 1.416 ± 0.028 | 1.4056 ± 0.028 | 1.3876 ± 0.028 | 1.3569 ± 0.027
308.15 K | 1.4412 ± 0.029 | 1.4381 ± 0.029 | 1.4353 ± 0.029 | 1.4316 ± 0.029 | 1.4274 ± 0.029 | 1.4219 ± 0.028 | 1.4147 ± 0.028 | 1.4044 ± 0.028 | 1.3865 ± 0.028 | 1.356 ± 0.027
313.15 K | 1.4398 ± 0.029 | 1.4367 ± 0.029 | 1.4339 ± 0.029 | 1.4302 ± 0.029 | 1.426 ± 0.029 | 1.4205 ± 0.028 | 1.4134 ± 0.028 | 1.4031 ± 0.028 | 1.3853 ± 0.028 | 1.3552 ± 0.027
318.15 K | 1.4384 ± 0.029 | 1.4352 ± 0.029 | 1.4324 ± 0.029 | 1.4288 ± 0.029 | 1.4246 ± 0.029 | 1.4191 ± 0.028 | 1.412 ± 0.028 | 1.4018 ± 0.028 | 1.3842 ± 0.028 | 1.3543 ± 0.027

OCCCCCO [1,5-pentanediol] + O
refractive index
Conditions | x2 = 0 | x2 = 0.1235 | x2 = 0.2586 | x2 = 0.3455 | x2 = 0.4864 | x2 = 0.5755 | x2 = 0.6777 | x2 = 0.7611 | x2 = 0.8474 | x2 = 0.9205
288.15 K | 1.4503 ± 0.029 | 1.4493 ± 0.029 | 1.4477 ± 0.029 | 1.4463 ± 0.029 | 1.4425 ± 0.029 | 1.4401 ± 0.029 | 1.4342 ± 0.029 | 1.4253 ± 0.029 | 1.4085 ± 0.028 | 1.3851 ± 0.028
293.15 K | 1.449 ± 0.029 | 1.4477 ± 0.029 | 1.4462 ± 0.029 | 1.4447 ± 0.029 | 1.4411 ± 0.029 | 1.4386 ± 0.029 | 1.4328 ± 0.029 | 1.4239 ± 0.029 | 1.4073 ± 0.028 | 1.384 ± 0.028
298.15 K | 1.4478 ± 0.029 | 1.4464 ± 0.029 | 1.4447 ± 0.029 | 1.4432 ± 0.029 | 1.4396 ± 0.029 | 1.4371 ± 0.029 | 1.4315 ± 0.029 | 1.4225 ± 0.029 | 1.406 ± 0.028 | 1.3828 ± 0.028
303.15 K | 1.4466 ± 0.029 | 1.4448 ± 0.029 | 1.4431 ± 0.029 | 1.4416 ± 0.029 | 1.438 ± 0.029 | 1.4355 ± 0.029 | 1.43 ± 0.029 | 1.4211 ± 0.028 | 1.4048 ± 0.028 | 1.3816 ± 0.028
308.15 K | 1.4454 ± 0.029 | 1.4434 ± 0.029 | 1.4416 ± 0.029 | 1.4402 ± 0.029 | 1.4367 ± 0.029 | 1.4341 ± 0.029 | 1.4286 ± 0.029 | 1.4197 ± 0.028 | 1.4035 ± 0.028 | 1.3804 ± 0.028
313.15 K | 1.4441 ± 0.029 | 1.4419 ± 0.029 | 1.44 ± 0.029 | 1.4386 ± 0.029 | 1.4352 ± 0.029 | 1.4326 ± 0.029 | 1.4271 ± 0.029 | 1.4183 ± 0.028 | 1.4022 ± 0.028 | 1.3793 ± 0.028
318.15 K | 1.443 ± 0.029 | 1.4408 ± 0.029 | 1.4386 ± 0.029 | 1.4373 ± 0.029 | 1.434 ± 0.029 | 1.4313 ± 0.029 | 1.4259 ± 0.029 | 1.4171 ± 0.028 | 1.401 ± 0.028 | 1.3781 ± 0.028

OCCCO [propan-1,3-diol] + O
refractive index
Conditions | x2 = 0 | x2 = 0.1737 | x2 = 0.2519 | x2 = 0.3669 | x2 = 0.4553 | x2 = 0.5501 | x2 = 0.6509 | x2 = 0.7532 | x2 = 0.8508
288.15 K | 1.4407 ± 0.029 | 1.4361 ± 0.029 | 1.4335 ± 0.029 | 1.429 ± 0.029 | 1.4248 ± 0.029 | 1.419 ± 0.028 | 1.4107 ± 0.028 | 1.3985 ± 0.028 | 1.381 ± 0.028
293.15 K | 1.4393 ± 0.029 | 1.4347 ± 0.029 | 1.4321 ± 0.029 | 1.4276 ± 0.029 | 1.4234 ± 0.029 | 1.4177 ± 0.028 | 1.4095 ± 0.028 | 1.3973 ± 0.028 | 1.38 ± 0.028
298.15 K | 1.438 ± 0.029 | 1.4334 ± 0.029 | 1.4308 ± 0.029 | 1.4263 ± 0.029 | 1.4221 ± 0.028 | 1.4165 ± 0.028 | 1.4083 ± 0.028 | 1.3962 ± 0.028 | 1.379 ± 0.028
303.15 K | 1.4367 ± 0.029 | 1.432 ± 0.029 | 1.4295 ± 0.029 | 1.425 ± 0.029 | 1.4208 ± 0.028 | 1.4152 ± 0.028 | 1.4071 ± 0.028 | 1.3951 ± 0.028 | 1.378 ± 0.028
308.15 K | 1.4353 ± 0.029 | 1.4306 ± 0.029 | 1.4281 ± 0.029 | 1.4236 ± 0.029 | 1.4194 ± 0.028 | 1.4139 ± 0.028 | 1.4059 ± 0.028 | 1.3939 ± 0.028 | 1.3771 ± 0.028
313.15 K | 1.434 ± 0.029 | 1.4294 ± 0.029 | 1.4268 ± 0.029 | 1.4223 ± 0.028 | 1.4181 ± 0.028 | 1.4127 ± 0.028 | 1.4047 ± 0.028 | 1.3929 ± 0.028 | 1.3761 ± 0.028
318.15 K | 1.4327 ± 0.029 | 1.4281 ± 0.029 | 1.4255 ± 0.029 | 1.421 ± 0.028 | 1.4169 ± 0.028 | 1.4115 ± 0.028 | 1.4036 ± 0.028 | 1.3918 ± 0.028 | 1.3752 ± 0.028
